The source of these data is US7026347B2, “Porphyrin-polyamine conjugates for cancer therapy” (CellGate, Inc., priority 2002, dated 2006).

Molecules are shown by their SMILES.

Assay type in all cases: cell-based
Assay [1] deals with Panc-1 human pancreatic cancer cells. Description: MTT assay, human pancreatic cancer cell growth, Panc-1. The following applies: 144 h, Panc-1 cells, MTT six days after drug treatment, read-out: ID50(μM) values for Human Pancreatic Cancer Cell Lines Panc-1. On the procedure: (§1) A conventional MTT assay was used to evaluate percent cell survival. Exponentially growing monolayer cells were plated in 96-well plates at a density of 500 cells per well and allowed to grow for 24 hours. Serial dilutions of the drugs were added to the wells. Six days after drug treatment, 25 μl of MTT solution (5 mg/ml) was added to each well and incubated for 4 hours at 37° C. Then 100 μl of lysis buffer (20% sodium dodecyl sulfate, 50% DMF, and 0.8% acetic acid, pH 4.7) was added to each well and incubated for an additional 22 hours. A microplate reader (“EMAX”-brand, Molecular Devices, Sunnyvale, Calif.) set at 570 nm was used to determine the optical density of the cultures. Results are expressed as a ratio of the optical density in drug-treated wells to the optical density in wells treated with vehicle only. FIGS. 1–13 also indicate the effects of the compounds on various cell lines.

Assay [2] deals with BxPC-3 human pancreatic cancer cells. The assay is described as follows: MTT assay, human pancreatic cancer cell growth, BxPC-3. The conditions noted are these: 144 h, BxPC-3 cells, MTT six days after drug treatment, read-out: ID50(μM) values for Human Pancreatic Cancer Cell Lines BxPC-3. On the procedure:
as §1

Assay [3] relates to Human Brain Tumor Cells U251MG NCI. The assay is described as follows: MTT assay, human brain tumor cell growth, U251MG NCI. The following applies: U-251, 144 h, MTT six days after drug treatment, read-out: ID50(μM) values for Human Brain Tumor Cells U251MG NCI. On the procedure: as §1
Assay [4] has as its system PC-3 human prostate tumor cells. The assay is described as follows: MTT assay, human prostate tumor cell growth, PC-3. The conditions noted are these: 144 h, PC-3 cells, MTT six days after drug treatment, read-out: ID50 (μM) values for Human prostate tumor Cell Lines PC-3. As to the method: as §1
Assay [5] relates to DuPro human prostate tumor cells. Description: MTT assay, human prostate tumor cell growth, DuPro. The conditions noted are these: 144 h, MTT six days after drug treatment, read-out: ID50 (μM) values for Human prostate tumor Cell Lines DuPro. On the procedure:
as §1

In assay [6] the test system is Tsu-pr1-ADR human prostate tumor cells. The assay is described as follows: MTT assay, human prostate tumor cell growth, Tsu-pr1-ADR. The conditions noted are these: 144 h, MTT six days after drug treatment, read-out: ID50 (μM) values for Human prostate tumor Cell Lines Tsu-pr1-ADR. On the procedure:
as §1

In assay [7] the test system is Tsu-pr1 human prostate tumor cells. Description: MTT assay, human prostate tumor cell growth, Tsu-pr1. The conditions noted are these: 144 h, MTT six days after drug treatment, read-out: ID50 (μM) values for Human prostate tumor Cell Lines Tsu-pr1. As to the method: as §1

Regarding `CCNCCCCNCC1CC1CNCCCCN(CC)C(=O)CCC1=C(C)c2cc3[nH]c(cc4nc(cc5[nH]c(cc1n2)c(CCC(=O)N(CC)CCCCNCC1CC1CNCCCCNCC)c5C)C(CC)=C4C)c(CC)c3C` (stereo not drawn) [SL-11217], the IC50 was found to be 6.38 µM in assay [1]; 6.87 µM in assay [2]; 5.65 µM in assay [3]; 2.8 µM in assay [4]; 3.6 µM in assay [5].

`CCCCCCCCCCCCCC1CCN(CCCNC(=O)CCC2=C(C)c3cc4[nH]c(cc5nc(cc6[nH]c(cc2n3)c(CCC(=O)NCCCN2CCCN(C)CCCCN(C)CCCN(C)C(CCCCCCCCCCCCC)CC2)c6C)C(CC)=C5C)c(CC)c4C)CCCN(C)CCCCN(C)CCCN1C` (stereo not drawn) [SL-11237]: the IC50 in assay [1] stood at 12.5 µM; in assay [2] it was 5.92 µM; in assay [3], 2.3 µM; in assay [6] it was 12.6 µM; in assay [4], 1.7 µM; in assay [5], 1.9 µM. In assay [7], the IC50 is 1.87 µM.
